Reference: patent US6525059B1, “Substituted pyrazoles as p38 kinase inhibitors” (G. D. Searle & Company, priority 1998, dated 2003)
Structures can show the parent of a compound that is named as a salt. Where two headings read alike, the source gives them in different places.

Experiments:
human p38 kinase alpha = target: T1, human p38 kinase alpha (Homo sapiens, UniProt Q16539); test: p38 kinase in vitro assay, phosphorylation of biotinylated PHAS-I with gamma 32P-ATP; format: biochemical
T1 construct: The coding region of the human p38a cDNA was obtained by PCR-amplification from RNA isolated from the human monocyte cell line THP.1; GST (N); made in house; host or cells: E. coli DH10B
Summary of the method: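 Radiometric filter-capture read-out: streptavidin plates trap biotin-PHAS-I labelled by activated (MKK6) human p38α from γ-32P-ATP. Buffer 25 mM HEPES pH 7.5, 10 mM magnesium acetate, 50 μM cold ATP; reactions 1 h or overnight at 30 °C; inhibitors 10-fold dilutions 100 to 0.001 μM, triplicates, 1% DMSO.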

human TNF = test: TNF inhibition: human whole blood assay; format: cell-based; conditions: Homo sapiens
Description: Human peripheral blood is obtained in heparinized tubes. A 190 μL aliquot of blood is placed in each well of a 96 well u-bottom plate. […] After one hour of incubation at 37° C., […] of lipopolysaccharide (Salmonella typhosa, Sigma) in phosphate buffered saline is added resulting in a final concentration of […]. After four to five hours of incubation at 37° C., the supernatants are harvested and assayed at 1:10 or 1:20 dilutions for human TNF using ELISA.

TNF-α = test: Rat assay: LPS-challenged rats, serum TNF-α by ELISA; format: in vivo; conditions: for inhibition in vivo at 1 mg/kg / inhibition in vivo at 5 mg/kg: Rattus norvegicus, po; for inhibition in vivo at 1 mg/kg: 1.0 mg/kg oral gavage, read-out: ratLPS/% Inh @1.0 (mg/kg)
[1] = target: T2, human GST-p38 kinase alpha (Homo sapiens, UniProt Q16539); test: p38 kinase in vitro assay, second format, phosphorylation of EGFRP with 33P-ATP; format: biochemical; conditions: read-out: p38α Kinase Assay IC50
T2 construct: The coding region of the human p38a cDNA was obtained by PCR-amplification from RNA isolated from the human monocyte cell line THP.1; made in house; host or cells: E. coli DH10B
Description: A second assay format was also employed that is based on p38 kinase alpha induced phosphorylation of EGFRP (epidermal growth factor receptor peptide, a 21 mer) in the presence of ^33P-ATP. Compounds were tested in 10 fold serial dilutions over the range of 100 μM to 0.001 μM in 10% DMSO. Each concentration of inhibitor was tested in triplicate. Compounds were evaluated in 50 μl reaction volumes in the presence of 25 mM Hepes pH 7.5, 10 mM magnesium acetate, 4% glycerol, 0.4% bovine serum albumin, 0.4 mM DTT, 50 μM unlabeled ATP, 25 μg EGFRP (200 μM), and 0.05 uCi gamma ^33P-ATP. Reactions were initiated by addition of 0.09 μg of activated, purified human GST-p38 kinase alpha. Activation was carried out using GST-MKK6 (5:1, p38: MKK6) for one hour at 30° C. in the presence of 50 μM ATP. Following incubation for 60 minutes at room temperature, the reaction was stopped by addition of 150 μl of AG 1×8 resin in 900 mM sodium formate buffer, pH 3.0 (1 volume resin to 2 volumes buffer). The mixture was mixed three times with pipetting and the resin was allowed to settle. A total of 50 μl of clarified solution head volume was transferred from the reaction wells to Microlite-2 plates. 150 μl of Microscint 40 was then added to each well of the Microlite plate, and the plate was sealed, mixed, and counted.

[2] = TNF production, LPS-stimulated human whole blood, read-out: HWB IC50
[3] = 5.0 mg/kg oral gavage, 4 hours before LPS challenge, read-out: ratLPS/% Inh @5.0 (mg/kg)
[4] = read-out: P38 alpha kinase IC50
[5] = TNF production, LPS-stimulated human whole blood, read-out: Human Whole Blood IC50
[6] = 5 mpk oral gavage, 4 h before LPS challenge, read-out: Rat LPS Model % Inhibition @ dose @ predose time
[7] = Table 10, human whole blood, LPS, read-out: TNF Inhibition-Human Whole Blood Assay

T1 sequence (Q16539 whole entry): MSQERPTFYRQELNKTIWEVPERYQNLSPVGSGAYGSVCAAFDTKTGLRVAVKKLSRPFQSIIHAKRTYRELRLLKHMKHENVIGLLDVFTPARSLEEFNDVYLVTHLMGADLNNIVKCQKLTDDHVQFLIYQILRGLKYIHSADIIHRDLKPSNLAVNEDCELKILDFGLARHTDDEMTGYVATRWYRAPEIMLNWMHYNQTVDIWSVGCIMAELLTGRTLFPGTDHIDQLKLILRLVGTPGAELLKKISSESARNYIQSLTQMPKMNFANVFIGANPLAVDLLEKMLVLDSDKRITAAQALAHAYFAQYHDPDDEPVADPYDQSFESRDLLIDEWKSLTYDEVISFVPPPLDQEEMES
T2 sequence (Q16539 whole entry): as above

Compound	IC50 (human p38 kinase alpha; read-out: p38 alpha IC50) [nM]	IC50 (human TNF; [2]) [nM]	inhibition in vivo at 1 mg/kg (TNF-α; 4 hours before LPS challenge) [%]	inhibition in vivo at 5 mg/kg (TNF-α; [3]) [%]	IC50 (human p38 kinase alpha; [4]) [nM]	IC50 (human TNF; [5]) [nM]	inhibition in vivo at 5 mg/kg (TNF-α; [6]) [%]	also measured
CC(C)(O)C(=O)N1CCC(c2[nH]nc(-c3ccc(Cl)cc3)c2-c2ccncn2)CC1 [Example D-4, hydrochloride]	910	1550	42.3	83	–	–	–	ratLPS/% Inh @20.0 (mg/kg) (TNF-α; 20.0 mg/kg oral gavage, 4 hours before LPS challenge): 99.0%
Clc1ccc(-c2n[nH]c(C3CCNCC3)c2-c2ccncc2)cc1 [Example C-74, 5-(4-piperidyl)-4-(4-pyridyl)-3-(4-chlorophenyl)pyrazole hydrochloride]	–	–	–	–	37	560	54	–
CS(=O)(=O)c1[nH]nc(-c2ccc(F)cc2)c1-c1ccncc1 [Example A-437, 3-(4-fluorophenyl)-5-(methylsulfonyl)-4-pyridin-4-yl-1H-pyrazole]	–	–	–	–	–	–	–	IC50 ([1]; Table 10, 10% DMSO, @ 1.0 hour): 7760 nM; IC50 (human TNF; [7]): > 25000 nM
FC(F)(F)c1cccc(-c2n[nH]c(C3CCNCC3)c2-c2ccncc2)c1 [Example C-86]	–	–	–	–	7	190	66	–
CC(=O)N1CCC(c2[nH]nc(-c3ccc(Cl)cc3)c2-c2ccncc2)CC1 [Example C-76]	–	–	–	–	70	3240	66	–
O=C(CO)N1CCC(c2[nH]nc(-c3ccc(OC(F)(F)F)cc3)c2-c2ccncn2)CC1 [Example D-10, N-(2-Hydroxyacetyl)-5-(4-piperidyl)-4-(4-pyrimidyl)-3-(4-trifluoromethoxyphenyl)pyrazole]	3950	14800	–	80	–	–	–	–
O=C(CO)N1CCC(c2[nH]nc(-c3cccc(C(F)(F)F)c3)c2-c2ccncn2)CC1 [Example D-13]	330	8360	53	87	–	–	–	–
Clc1ccc(-c2n[nH]c(SCCN3CCCC3)c2-c2ccncc2)cc1 [Example A-460]	–	–	–	–	–	–	–	IC50 ([1]; Table 10, 10% DMSO, @ 1.0 hour): 1840 nM; IC50 (human TNF; [7]): 8910 nM
Fc1ccc(-c2[nH]nc(NC3CCNCC3)c2-c2ccncc2)cc1 [Example A-339, N-[5-(4-fluorophenyl)-4-(4-pyridinyl)-1H-pyrazol-3-yl]-4-piperidinamine, trihydrochloride]	–	–	–	–	–	–	–	IC50 ([1]; Table 8, 10% DMSO): 52 nM; IC50 (human TNF; Table 8, human whole blood, LPS, read-out: TNF Inhibition-Human Whole Blood Assay): 56 nM
O=C(CO)N1CCC(c2[nH]nc(-c3ccc(F)cc3)c2-c2ccncn2)CC1 [Example D-8]	180	1300	65	85	–	–	–	–
COCC(=O)N1CCC(c2[nH]nc(-c3ccc(Cl)cc3)c2-c2ccncc2)CC1 [Example C-77]	–	–	–	–	71	8200	92	–
O=C(CO)N1CCC(c2[nH]nc(-c3cccc(Cl)c3)c2-c2ccncn2)CC1 [Example D-11, N-(2-Hydroxyacetyl)-5-(4-piperidyl)-4-(4-pyrimidyl)-3-(3-chlorophenyl)pyrazole]	160	1500	43	86	–	–	–	–
CN1CCC[C@@H]1c1[nH]nc(-c2ccc(F)cc2)c1-c1ccncc1 [Example C-126, (R)-5-(N-METHYL-2-PYROLIDINYL)-4-(4-PYRIDYL)-3-(4-FLUOROPHENYL)PYRAZOLE]	–	–	–	–	710	> 25000	6	–
